Here are results for eight molecules from patent publication US8598206B2, “Trypsin-like serine protease inhibitors, and their preparation and use” (The Medicines Company (Leipzig) GmbH, priority 2010, dated 2013).

By Ki is commonly meant a measure of affinity in units of concentration, obtained from inhibition or displacement.

Bounds are passed on as bounds.

Holding throughout (type): biochemical
One assay deals with human Factor Xa (Homo sapiens (Human), UniProt P00742). The experiment in a line: Inhibition of human Factor Xa. The following applies: Pefachrome FXa substrate; read-out: h FXa Ki. On the procedure: The inhibitory effect for the individual enzymes was determined in analogy to a previously disclosed method (Stürzebecher et al., J. Med. […] In the case of pseudo-first order kinetics, the reaction rates in the equilibrium state were determined by continuously recording the change in absorbance at 405 nm. […] The Ki values are the average of at least three determinations. Human Factor Xa (h FXa): […]

A further assay deals with plasma kallikrein (Homo sapiens (Human), UniProt P03952). The experiment in a line: Determination of inhibition constants for human plasma kallikrein (chromogenic substrate). Conditions: 25° C., S2302 substrate; read-out: h PK Ki. As for the experimental part:
(§1) Determination of the Inhibition Constants for Human Plasmin (h Plasmin) and Human Plasma Kallikrein (h PK)
(§2) The inhibitory effect for the individual enzymes was determined in analogy to a previously disclosed method (Stürzebecher et al., J. Med. Chem., 40, 3091-3099 (1997)).
(§3) 200 μl of TBS (0.05 M trishydroxymethylaminomethane; 0.154 M NaCl, 2% ethanol, pH 8.0)
(§4) 25 μl of substrate (4 mM, 2 mM and 1 mM tosyl-Gly-Pro-Lys-pNA=Chromozym PL from LOXO for plasmin and 3 mM, 1.5 mM and 1 mM H-D-Pro-Phe-Arg-pNA=S2302 from Chromogenix for PK, dissolved in H2O)
(§5) 2 μL of a test compound solution in 50% v/v DMSO/water
(§6) 50 μl of enzyme solution (plasmin from Calbiochem: 1.7 mU/ml in 0.154 M NaCl+0.1% BSA m/v; plasma kallikrein from Enzyme Research Lab.: 62 ng/ml in 0.154 M NaCl+0.1% BSA m/v)
(§7) For zero order kinetics, the reaction was stopped after 20 min by adding 15 μl of acetic acid (80% v/v), and the absorption at 405 nm was determined using a Microplate Reader (Multiscan Ascent™, from Thermo). In the case of pseudo-first order kinetics, the reaction rates in the equilibrium state were determined by continuously recording the change in absorbance at 405 nm. The Ki values were calculated by parameter fitting in accordance with the rate equation for competitive inhibition using the GraFit software, version 4. The Ki values are the average of at least three determinations.

For a further assay, the target named is human Factor XIa (Homo sapiens (Human), UniProt P03951). The experiment in a line: Inhibition of human Factor XIa. Conditions: Pefachrome PCa substrate; read-out: h FXIa Ki. On the procedure: as §2, §3, §5, §7
For another assay, the target named is human urinary kallikrein (Homo sapiens (Human), UniProt P06870). In words: Inhibition of human urinary kallikrein. Conditions: S-2266 substrate; read-out: h uKK Ki. As for the experimental part: as §2, §3, §5, §7
The target in assay [1] is human activated protein C (Homo sapiens (Human), UniProt P04070). The experiment in a line: Inhibition of human activated protein C. Conditions: Pefachrome PCa substrate; read-out: h aPC Ki. As for the experimental part:
as §2, §3, §5, §7

Assay [2] deals with human activated C1s complement component (Homo sapiens (Human), UniProt P09871). In words: Inhibition of human C1s. Conditions: S2314 substrate; read-out: h C1s Ki. As for the experimental part: as §2, §3, §5, §7
Subcomponent “s” of Human Complement Component 1 (h C1s): Inhibition of human C1s was determined by the method described in [0092]-[0098] using native human activated C1s complement component from Calbiochem at 29 nM and Val-Ser-Arg-pNA (S2314) at 8 mM, 6 mM, and 4 mM as substrate; results are reported as Ki values (nanomolar).

The target of assay [3] is human activated C1r complement component (Homo sapiens (Human), UniProt P00736). The experiment in a line: Inhibition of human C1r. Conditions: S2314 substrate; read-out: h C1r Ki. As for the experimental part:
as §2, §3, §5, §7

In a further assay the target is human alpha-thrombin (Homo sapiens (Human), UniProt P00734). In words: Inhibition of human Factor IIa. Conditions: Pefachrome tPA substrate; read-out: h FIIa Ki. As for the experimental part: as §2, §3, §5, §7
In another assay the target is plasmin (Homo sapiens (Human), UniProt P00747). The experiment in a line: Determination of inhibition constants for human plasmin (chromogenic substrate). Conditions: 25° C., Chromozym PL substrate; read-out: h plasmin Ki. As for the experimental part:
as §1, §2, §3, §4, §5, §6, §7

The target in the next assay is human alpha-FXIIa (Homo sapiens (Human), UniProt P00748). The experiment in a line: Inhibition of human alpha-Factor XIIa. The following applies: CHA-Gly-Arg-pNA substrate; read-out: h FXIIa Ki. As for the experimental part: as §2, §3, §5, §7

human Factor Xa, sequence (P00742 235-488): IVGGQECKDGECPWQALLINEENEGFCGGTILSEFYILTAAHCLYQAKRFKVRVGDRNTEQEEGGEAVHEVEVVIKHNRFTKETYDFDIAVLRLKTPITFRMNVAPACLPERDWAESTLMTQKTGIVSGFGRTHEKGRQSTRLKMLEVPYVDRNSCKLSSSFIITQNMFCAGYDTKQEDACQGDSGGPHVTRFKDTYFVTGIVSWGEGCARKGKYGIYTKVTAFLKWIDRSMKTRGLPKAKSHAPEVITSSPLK
human Factor Xa, sequence (P00742 41-179 partner): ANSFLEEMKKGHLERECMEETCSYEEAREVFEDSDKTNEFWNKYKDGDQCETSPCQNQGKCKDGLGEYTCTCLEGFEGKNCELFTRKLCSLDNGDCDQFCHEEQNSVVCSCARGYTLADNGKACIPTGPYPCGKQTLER
human Factor XIa, sequence (P03951 388-625): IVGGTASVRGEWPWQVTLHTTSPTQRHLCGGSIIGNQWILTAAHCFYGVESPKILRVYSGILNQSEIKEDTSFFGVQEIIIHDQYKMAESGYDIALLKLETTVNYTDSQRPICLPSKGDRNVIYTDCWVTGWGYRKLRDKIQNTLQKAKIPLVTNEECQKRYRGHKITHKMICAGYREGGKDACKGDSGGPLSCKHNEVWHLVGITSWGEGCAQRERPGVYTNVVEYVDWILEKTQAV
human Factor XIa, sequence (P03951 19-387 partner): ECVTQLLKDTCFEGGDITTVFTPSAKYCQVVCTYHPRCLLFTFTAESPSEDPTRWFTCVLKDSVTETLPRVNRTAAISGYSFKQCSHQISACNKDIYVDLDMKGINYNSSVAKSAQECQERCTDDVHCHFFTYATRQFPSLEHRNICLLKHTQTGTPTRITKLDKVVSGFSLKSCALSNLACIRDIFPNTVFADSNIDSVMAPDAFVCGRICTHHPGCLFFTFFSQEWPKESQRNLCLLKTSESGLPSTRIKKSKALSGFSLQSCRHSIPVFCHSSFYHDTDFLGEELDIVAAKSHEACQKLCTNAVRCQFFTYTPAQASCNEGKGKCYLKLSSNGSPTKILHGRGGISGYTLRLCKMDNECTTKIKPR
human activated C1r complement component, sequence (P00736 464-705): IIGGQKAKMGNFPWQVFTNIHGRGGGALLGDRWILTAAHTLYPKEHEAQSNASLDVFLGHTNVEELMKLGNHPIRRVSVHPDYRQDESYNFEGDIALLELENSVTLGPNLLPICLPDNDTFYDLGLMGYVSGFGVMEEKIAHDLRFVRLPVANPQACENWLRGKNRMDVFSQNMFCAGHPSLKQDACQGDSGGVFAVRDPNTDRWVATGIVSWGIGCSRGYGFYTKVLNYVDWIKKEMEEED
human activated C1r complement component, sequence (P00736 18-463 partner): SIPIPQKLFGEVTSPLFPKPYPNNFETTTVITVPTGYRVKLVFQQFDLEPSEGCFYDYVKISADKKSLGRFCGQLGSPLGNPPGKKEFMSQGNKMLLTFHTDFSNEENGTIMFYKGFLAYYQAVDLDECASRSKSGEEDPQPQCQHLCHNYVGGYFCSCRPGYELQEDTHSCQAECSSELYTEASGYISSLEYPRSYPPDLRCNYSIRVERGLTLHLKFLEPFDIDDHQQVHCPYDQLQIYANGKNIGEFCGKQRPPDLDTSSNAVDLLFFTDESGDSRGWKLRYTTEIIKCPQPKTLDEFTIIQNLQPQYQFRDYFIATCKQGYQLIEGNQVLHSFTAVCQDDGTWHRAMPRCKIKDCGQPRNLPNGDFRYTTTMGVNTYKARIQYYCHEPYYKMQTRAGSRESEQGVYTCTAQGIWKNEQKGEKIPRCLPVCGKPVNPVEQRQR
plasmin, sequence (P00747 581-810): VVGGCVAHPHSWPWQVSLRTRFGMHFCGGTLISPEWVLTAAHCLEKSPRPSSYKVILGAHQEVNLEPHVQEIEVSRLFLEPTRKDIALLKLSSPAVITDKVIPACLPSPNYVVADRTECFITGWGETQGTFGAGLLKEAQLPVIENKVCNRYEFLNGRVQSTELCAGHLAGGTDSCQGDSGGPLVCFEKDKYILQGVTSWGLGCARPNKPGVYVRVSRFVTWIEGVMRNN
plasmin, sequence (P00747 97-580 partner): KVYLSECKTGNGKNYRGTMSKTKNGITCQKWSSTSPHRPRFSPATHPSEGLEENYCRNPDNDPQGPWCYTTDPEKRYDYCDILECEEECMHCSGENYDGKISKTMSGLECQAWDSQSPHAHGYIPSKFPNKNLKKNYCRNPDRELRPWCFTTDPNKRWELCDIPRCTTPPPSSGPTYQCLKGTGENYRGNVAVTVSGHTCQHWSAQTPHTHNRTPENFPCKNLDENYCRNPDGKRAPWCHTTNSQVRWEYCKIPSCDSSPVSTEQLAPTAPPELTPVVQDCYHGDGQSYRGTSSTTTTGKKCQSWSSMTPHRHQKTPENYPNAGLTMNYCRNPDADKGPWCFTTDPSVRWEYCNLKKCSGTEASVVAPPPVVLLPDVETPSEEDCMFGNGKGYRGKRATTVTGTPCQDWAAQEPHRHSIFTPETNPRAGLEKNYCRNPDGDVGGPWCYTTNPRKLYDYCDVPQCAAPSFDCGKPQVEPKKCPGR
plasma kallikrein, sequence (P03952 391-638): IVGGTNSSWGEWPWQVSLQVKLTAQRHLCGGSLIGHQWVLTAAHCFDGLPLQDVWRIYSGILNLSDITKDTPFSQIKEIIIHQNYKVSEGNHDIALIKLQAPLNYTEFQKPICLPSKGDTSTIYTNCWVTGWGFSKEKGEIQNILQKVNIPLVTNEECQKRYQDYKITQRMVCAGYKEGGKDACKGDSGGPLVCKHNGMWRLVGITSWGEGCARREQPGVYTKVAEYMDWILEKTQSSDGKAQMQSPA
plasma kallikrein, sequence (P03952 20-390 partner): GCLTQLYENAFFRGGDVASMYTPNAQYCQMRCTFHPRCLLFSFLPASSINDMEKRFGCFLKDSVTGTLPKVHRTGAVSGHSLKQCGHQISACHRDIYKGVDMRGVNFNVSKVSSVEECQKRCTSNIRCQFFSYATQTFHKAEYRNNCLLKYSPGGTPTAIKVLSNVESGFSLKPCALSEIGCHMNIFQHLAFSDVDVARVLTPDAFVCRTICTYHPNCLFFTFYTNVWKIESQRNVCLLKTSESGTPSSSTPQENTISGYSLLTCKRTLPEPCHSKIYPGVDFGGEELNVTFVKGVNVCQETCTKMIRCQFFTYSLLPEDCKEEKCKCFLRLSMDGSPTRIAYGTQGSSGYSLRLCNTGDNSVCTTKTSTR
human activated protein C, sequence (P04070 212-450): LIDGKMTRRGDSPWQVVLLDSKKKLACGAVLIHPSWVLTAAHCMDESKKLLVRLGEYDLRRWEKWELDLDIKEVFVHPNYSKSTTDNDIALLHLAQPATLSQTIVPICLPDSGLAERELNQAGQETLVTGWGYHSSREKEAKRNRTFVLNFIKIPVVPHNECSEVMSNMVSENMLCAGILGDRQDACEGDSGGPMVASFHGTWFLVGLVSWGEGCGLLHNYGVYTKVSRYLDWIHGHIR
human activated protein C, sequence (P04070 43-197 partner): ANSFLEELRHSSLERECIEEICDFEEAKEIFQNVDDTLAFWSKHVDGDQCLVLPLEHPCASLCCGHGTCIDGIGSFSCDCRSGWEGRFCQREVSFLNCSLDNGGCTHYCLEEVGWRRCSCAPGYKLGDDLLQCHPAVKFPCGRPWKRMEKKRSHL
human urinary kallikrein, sequence (P06870 25-262): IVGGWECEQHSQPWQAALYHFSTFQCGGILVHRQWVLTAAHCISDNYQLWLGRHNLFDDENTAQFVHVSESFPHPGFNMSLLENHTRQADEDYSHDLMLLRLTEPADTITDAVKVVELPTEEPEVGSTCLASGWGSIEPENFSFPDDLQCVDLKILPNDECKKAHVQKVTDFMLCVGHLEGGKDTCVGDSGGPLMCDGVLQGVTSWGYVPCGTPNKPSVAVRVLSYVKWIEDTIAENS
human activated C1s complement component, sequence (P09871 438-688): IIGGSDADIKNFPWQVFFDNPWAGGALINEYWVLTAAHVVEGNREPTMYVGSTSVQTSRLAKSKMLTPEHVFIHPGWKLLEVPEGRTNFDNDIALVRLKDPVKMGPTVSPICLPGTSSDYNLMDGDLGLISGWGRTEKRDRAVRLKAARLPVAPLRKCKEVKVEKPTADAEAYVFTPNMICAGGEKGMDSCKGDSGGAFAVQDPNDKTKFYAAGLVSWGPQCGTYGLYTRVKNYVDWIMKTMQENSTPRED
human activated C1s complement component, sequence (P09871 16-437 partner): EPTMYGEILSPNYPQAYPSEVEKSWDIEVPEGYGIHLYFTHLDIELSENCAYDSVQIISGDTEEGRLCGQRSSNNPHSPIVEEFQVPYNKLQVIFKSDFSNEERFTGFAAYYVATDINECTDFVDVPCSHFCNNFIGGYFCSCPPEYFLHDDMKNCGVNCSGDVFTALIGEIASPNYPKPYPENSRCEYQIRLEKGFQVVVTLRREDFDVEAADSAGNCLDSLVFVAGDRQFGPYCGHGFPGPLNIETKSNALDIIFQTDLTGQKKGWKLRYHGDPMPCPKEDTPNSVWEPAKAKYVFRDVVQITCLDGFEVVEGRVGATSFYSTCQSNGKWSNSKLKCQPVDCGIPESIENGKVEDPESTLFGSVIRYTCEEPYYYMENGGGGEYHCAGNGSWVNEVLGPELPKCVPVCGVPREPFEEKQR

For `N=C(N)c1ccc(CNC(=O)[C@H](CCC2CCNCC2)NC(=O)[C@@H](CCc2ccncc2)NS(=O)(=O)Cc2ccccc2)cc1`, the inhibition constant (Ki) is 0.02 µM on human Factor Xa; 0.009 µM on plasma kallikrein; 0.5 µM on human Factor XIa; > 200 µM at human urinary kallikrein; 0.027 µM in [1]; 2 µM in assay [2]. Besides, the results for the Ki (in assay [3]; at human alpha-thrombin; at plasmin) were > 20 µM, 3.9 µM and 0.0015 µM, respectively.
`N=C(N)c1ccc(CNC(=O)[C@H](CCC2CCNCC2)NC(=O)[C@@H](CCCc2ccccc2)NS(=O)(=O)Cc2cccc(C(=O)O)c2)cc1`: the Ki was 2.4 µM at human Factor Xa; 0.003 µM on plasma kallikrein; 0.07 µM on human Factor XIa; > 20 µM at human urinary kallikrein; 0.31 µM in assay [1]; 1.2 µM in assay [2]. Moreover, the Ki is > 20 µM in [3], 4.4 µM at human alpha-thrombin and 0.0038 µM on plasmin.
In the case of `N=C(N)c1ccc(CNC(=O)[C@H](CCC2CCNCC2)NC(=O)[C@@H](CCCn2cnnn2)NS(=O)(=O)Cc2ccccc2)cc1`, the Ki at human Factor Xa is 2.4 µM; at plasma kallikrein it was 0.0053 µM; on human Factor XIa it was 1.4 µM; on human urinary kallikrein, > 200 µM; in assay [1], 1.3 µM; in assay [2], > 10 µM. Further, the Ki on human alpha-thrombin turned out to be 4.7 µM; at plasmin, 0.008 µM.
In the case of `N=C(N)c1ccc(CNC(=O)[C@H](CCC2CCNCC2)NC(=O)[C@@H](CCCC2CCNCC2)NS(=O)(=O)Cc2ccccc2)cc1`, the Ki is 0.3 µM on human Factor Xa; 0.0075 µM on plasma kallikrein; 0.8 µM on human Factor XIa; > 50 µM at human urinary kallikrein; 0.4 µM in [1]; 8 µM in assay [2]. Moreover, the Ki is > 50 µM in assay [3], 0.8 µM at human alpha-thrombin and 0.002 µM at plasmin.
With `N=C(N)c1ccc(CNC(=O)[C@H](CCC2CCNCC2)NC(=O)[C@@H](CCc2cc[n+]([O-])cc2)NS(=O)(=O)Cc2ccccc2)cc1`, the Ki on human Factor Xa was 0.12 µM; at plasma kallikrein, 0.02 µM; at human Factor XIa, 2.5 µM; on human urinary kallikrein, > 100 µM; in [1] it was 0.25 µM; in [2], 4.2 µM. Besides, the Ki in [3] is > 50 µM; at human alpha-thrombin, 9 µM; on plasmin it was 0.005 µM.
With `N=C(N)c1ccc(CNC(=O)[C@H](CCC2CCNCC2)NC(=O)[C@@H](CCC2CCNCC2)NS(=O)(=O)Cc2ccccc2)cc1`, the Ki on human Factor Xa was 0.09 µM; at plasma kallikrein, 0.0075 µM; at human Factor XIa, 1.4 µM; on human urinary kallikrein it was > 100 µM; in assay [1], 0.06 µM; in assay [2], > 25 µM. Moreover, the Ki in assay [3] is > 100 µM; on human alpha-thrombin it was 4.2 µM; on plasmin, 0.003 µM.
For `COC(=O)N1CCC(CCC[C@@H](NS(=O)(=O)Cc2ccccc2)C(=O)N[C@@H](CCC2CCNCC2)C(=O)NCc2ccc(C(=N)N)cc2)CC1`, the inhibitory constant (Ki) at human alpha-FXIIa is 0.4 µM; at human Factor Xa it was 0.4 µM; at plasma kallikrein, 0.0015 µM; at human Factor XIa, 0.6 µM; at human urinary kallikrein, > 100 µM; in assay [1] it was 0.8 µM. Besides, the inhibition constant Ki was 6.5 µM in assay [2], > 100 µM in [3], 3.6 µM at human alpha-thrombin and 0.001 µM on plasmin.
Turning to `N=C(N)c1ccc(CNC(=O)[C@H](CCC2CCNCC2)NC(=O)[C@H](NS(=O)(=O)Cc2ccccc2)c2ccccc2)cc1`, the Ki at human Factor Xa is 1.6 µM; at plasma kallikrein it was 0.02 µM; at human Factor XIa it was 1 µM; in assay [1] it was 0.21 µM; at human alpha-thrombin, 1.7 µM; at plasmin, 0.0022 µM.
